pEC50, pIC50: −log10 of the molar value. Read-outs that look alike come from different tables or passages of the source.
How the values were obtained:
[1] = tested on: HER3-ss+4aa/Gaussia Luciferase; assay: Dox-Induced Her3-ss-Gluc Assay; type: cell-based; details: 24 hr Dox induction, 293FRT/TO cells, read-out: 24 hr Dox Inducible Her3(ss + 4)Gluc 293FRT/TO: Mean IC50
Outline: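 Doxycycline-inducible HER3 signal sequence+4aa/Gaussia luciferase construct, stably integrated in Flp-In 293 T-REx cells; compound dilutions applied with doxycycline at 37° C., 5% CO2.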

[2] = tested on: IL-2-FL/Gaussia Luciferase; assay: Dox Induced IL2-FL-Gluc Assay; type: cell-based; details: for pIC50: 24 hr Dox induction, 293FRT/TO cells, read-out: 24 hr Dox Inducible IL2FLGluc 293FRT/TO: Mean IC50; for 24 hr Dox Inducible IL2FLGluc 293FRT/TO: IL2/PD1: ratio of IL2FLGluc IC50 to PD1ssGluc IC50
Outline: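 A hygromycin- and blasticidin-resistant 293 T-REx clone carrying inducible IL-2–Gaussia luciferase (full-length IL-2, residues 1-153) serves as the cell system. After overnight plating, the cells get test compounds together with doxycycline in DMSO/media and are incubated at 37° C, 5% CO2.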

[3] = Liver Microsome Stability Assay (monkey); details: monkey liver microsomes, with NADPH, 1.0 uM compound
Protocol: (§1) Stability of a compound was assessed in the presence of liver microsomes from various sources—mouse, rat, monkey and human liver microsomes. 1.0 uM compound, 0.4% DMSO in 0.1 M Potassium Phosphate with 1.0 mg/mL liver microsomes, were incubated at 37° C. with or without 1 mM NADPH. The samples were quenched at 0, and 30 minutes.

[4] = tested on: PD1-ss+10aa/Gaussia Luciferase; assay: Dox-Induced PD1-ss-Gluc Assay; type: cell-based; details: 24 hr Dox induction, 293FRT/TO cells, read-out: 24 hr Dox Inducible PD1ssGluc 293FRT/TO: Mean IC50
Outline: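 Flp-In 293 T-REx, stable line; Tet-regulated PD1-ss+10aa fused to Gaussia luciferase; plated day prior; cpd + doxycycline in DMSO/media; 37 °C, 5% CO2.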

[5] = Liver Microsome Stability Assay (rat); details: rat liver microsomes, with NADPH, 1.0 uM compound
Protocol: as §1

[6] = tested on: TNFα-FL/Gaussia Luciferase; assay: Dox Induced TNFα-FL-Gluc Assay; type: cell-based; details: for pIC50: 24 hr Dox induction, 293FRT/TO cells, read-out: 24 hr Dox Inducible TNFaFLGluc 293FRT/TO: Mean IC50; for 24 hr Dox Inducible TNFaFLGluc 293FRT/TO: TNF/PD1: ratio of TNFaFLGluc IC50 to PD1ssGluc IC50
Outline: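 Hygromycin/blasticidin-selected Flp-In 293 T-REx cells, TNFα-FL/Gaussia luciferase fusion under T-REx control; overnight plating, then compound in DMSO/media with doxycycline at 37 °C, 5% CO2; stereo-undefined structures tested as mixtures.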

[7] = tested on: multiple myeloma cell line U266B1; assay: U266 Cell Viability Assay; type: cell-based, human; details: Homo sapiens, U-266, 48 h, U266B1 cells, Celltiter-Glo
Outline: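 After growth in serum-supplemented RPMI 1640, cells received serially diluted compound in DMSO/media and were kept 48 hours before a CellTiter-Glo luminescence readout.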

[8] = Liver Microsome Stability Assay (human); details: human liver microsomes, with NADPH, 1.0 uM compound
Protocol: as §1

[9] = tested on: multiple myeloma cell line NCI-H929; assay: H929 Cell Viability Assay; type: cell-based, human; details: Homo sapiens, NCI-H929, 48 h, NCI-H929 cells, Celltiter-Glo
Outline: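 A 48-hour compound treatment of cells in 10% FBS RPMI medium was followed by luciferase-based viability quantification.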

[10] = Liver Microsome Stability Assay (mouse); details: mouse liver microsomes, with NADPH, 1.0 uM compound
Protocol: as §1

Structure (SMILES)	pIC50 [1]	pIC50 [2]	24 hr Dox Inducible IL2FLGluc 293FRT/TO: IL2/PD1 [2]	Liver Microsome Stability (Multiple Species): Monkey - % Remaining after 30 min w/NADPH [3] [%]	pIC50 [4]	Liver Microsome Stability (Multiple Species): Rat - % Remaining after 30 min w/NADPH [5] [%]	pIC50 [6]	24 hr Dox Inducible TNFaFLGluc 293FRT/TO: TNF/PD1 [6]	pEC50 [7]	Liver Microsome Stability (Multiple Species): Human - % Remaining after 30 min w/NADPH [8] [%]	pEC50 [9]	Liver Microsome Stability (Multiple Species): Mouse - % Remaining after 30 min w/NADPH [10] [%]	pIC50 ([1]; mean)	pIC50 ([2]; mean)	24 hr Dox Inducible IL2FLGluc 293FRT/TO: IL2/PD1 ([2]; '<=>' given where both are I.A.)	pIC50 ([4]; mean)	pIC50 ([6]; mean)
O=C(Nc1ccc(N2CCC[C@@H]2c2csc(NC(=O)c3cccn3Cc3ccnc(F)c3)n2)cc1)O[C@@H]1CCOC1 [Compound A171, (R)-tetrahydrofuran-3-yl (4-((R)-2-(2-(1-((2-fluoropyridin-4-yl)methyl)-1H-pyrrole-2-carboxamido)thiazol-4-yl)pyrrolidin-1-yl)phenyl)carbamate]	8.36	8.18	1.8	28.5	8.45	16	7.14	20.1	< 4.60	36.8	6.80	17.3	–	–	–	–	–
O=C(Nc1nc([C@H]2CCCN2c2ccc(Cl)cc2)cs1)c1cccn1Cc1ccncc1 [Compound A26, (R)-N-(4-(1-(4-chlorophenyl)pyrrolidin-2-yl)thiazol-2-yl)-1-(pyridin-4-ylmethyl)-1H-pyrrole-2-carboxamide]	8.03	8.17	2.1	3.34	8.50	8.78	6.80	50.2	5.93	5.11	6.87	5.75	–	–	–	–	–
CC(C)c1cc(/C=C/c2csc(NC(=O)c3cccn3Cc3ccnc(F)c3)n2)n(C)n1 [Compound B94, (E)-1-((2-fluoropyridin-4-yl)methyl)-N-(4-(2-(3-isopropyl-1-methyl-1H-pyrazol-5-yl)vinyl)thiazol-2-yl)-1H-pyrrole-2-carboxamide]	6.06	< 4.60	>24	0.06	5.99	31.1	< 4.60	>24.5	< 4.60	0.55	< 4.60	20	–	–	–	–	–
O=C(O)CCCn1cccc1C(=O)Nc1nc([C@H]2CCCN2c2ccccc2)cs1 [Compound C13]	–	–	–	81.3	–	87.9	–	–	< 4.60	82.1	< 4.60	64.9	< 4.60	< 4.60	1	< 4.60	< 4.60
O=C(Nc1nc(/C=C/c2c[nH]cn2)cs1)c1cccn1Cc1ccncc1 [Compound B42, (E)-N-(4-(2-(1H-imidazol-4-yl)vinyl)thiazol-2-yl)-1-(pyridin-4-ylmethyl)-1H-pyrrole-2-carboxamide]	< 4.60	< 4.60	>3.7	11.3	5.18	8.69	< 4.60	>3.74	< 4.60	6.13	< 4.60	26.5	–	–	–	–	–

Source: patent US20230286973A1, “PROTEIN SECRETION INHIBITORS” (KEZAR LIFE SCIENCES, priority 2020, published 2023)
